Like-named read-outs stand apart in the source and are kept apart here.
Legend:
Test in all cases: NCI SRB assay
Assay type in all cases: cell-based, human
[1] = system: SN12C; settings: for TGI: 5-dose
[2] = system: CAKI-1; settings: for CC50: read-out: LC50 (the source's name)
[3] = system: HL-60(TB); settings: for CC50: read-out: LC50 (the source's name)
[4] = system: SNB-75; settings: for CC50: read-out: LC50 (the source's name)
[5] = system: KM12
[6] = system: SK-MEL-2
[7] = system: SF-295
[8] = system: HCT-116; settings: for CC50: read-out: LC50 (the source's name)
[9] = system: MDA-MB-468; settings: for CC50: read-out: LC50 (the source's name)
[10] = system: NCI-H322M; settings: for CC50: read-out: LC50 (the source's name)
[11] = system: SNB-19; settings: for CC50: read-out: LC50 (the source's name)
[12] = system: COLO 205
[13] = system: MOLT-4; settings: for CC50: read-out: LC50 (the source's name)
[14] = system: NCI-H460
[15] = Homo sapiens, SNB-75, SNB-75, 5-dose
[16] = Homo sapiens, KM12, KM 12, 5-dose
[17] = Homo sapiens, MDA-MB-468, MDA-MB-468, 5-dose
[18] = Homo sapiens, SNB-19, SNB-19, 5-dose

## Cc1ccc(-c2nc(Nc3ccccc3C(=O)O)c3ccccc3n2)cc1 [6b, 2-((2-(p-Tolyl)quinazolin-4-yl)amino)benzoic acid]
[1]; SN12C, 10 μM
  GI%: 78%
[1]; SN12C, 1.00E-5 Molar
  Growth Percent: 22.24%
[1]; SN 12 C
  TGI: 60.4 µM
[1]; SN12C
  TGI: 6.04E-5 Molar
[2]; CAKI-1, 10 μM
  GI%: 79%
[2]; CAKI-1, 1.00E-5 Molar
  Growth Percent: 21.08%
[2]; CAKI-1, 5-dose
  TGI: <100 µM
  CC50: < 100 µM
[2]; CAKI-1, 5-dose, listed as D - 835857
  TGI: > 1.00E-4 Molar
[2]; Homo sapiens, CAKI-1, CAKI-1, 5-dose
  CC50: > 100 µM
[2]; Homo sapiens, CAKI-1, 5-dose
  GI50: 13.8 µM
[3]; HL-60(TB), 10 μM
  GI%: 82%
[3]; HL-60(TB), 1.00E-5 Molar
  Growth Percent: 17.80%
[3]; HL-60(TB), 5-dose
  TGI: 75.4 µM
  CC50: < 100 µM
[3]; HL-60(TB), 5-dose, listed as D - 835857
  TGI: 7.54E-5 Molar
[3]; Homo sapiens, HL-60, HL-60(TB), 5-dose
  CC50: > 100 µM
[3]; Homo sapiens, HL-60(TB), 5-dose
  GI50: 12.9 µM
[4]; [15]
  GI50: 1.36 µM
  CC50: > 100 µM
[4]; SNB-75, 10 μM
  GI%: 84%
[4]; SNB-75, 1.00E-5 Molar
  Growth Percent: 15.71%
[4]; SNB-75, 5-dose
  GI50: 1.4 µM
  TGI: 80.3 µM
  CC50: < 100 µM
[4]; SNB-75, 5-dose, listed as D - 835857
  TGI: 8.03E-5 Molar
[5]; [16]
  LC50: < 100 µM
  GI50: 13.7 µM
[5]; Homo sapiens, KM12, KM12, 5-dose
  LC50: > 100 µM
[5]; KM12, 10 μM
  GI%: 92%
[5]; KM12, 1.00E-5 Molar
  Growth Percent: 8.37%
[5]; KM 12, 5-dose
  TGI: 81.2 µM
[5]; KM12, 5-dose
  TGI: 8.12E-5 Molar
[6]; Homo sapiens, SK-MEL-2, SK-MEL-2, 5-dose
  GI50: 3.65 µM
[6]; Homo sapiens, SK-MEL-2, 5-dose, read-out: LC50 (the source's name)
  CC50: 83.5 µM
[6]; SK-MEL-2, 10 μM
  GI%: 94%
[6]; SK-MEL-2, 1.00E-5 Molar
  Growth Percent: 5.75%
[6]; SK-MEL-2, 5-dose
  GI50: 3.7 µM
  TGI: 15.6 µM
[6]; SK-MEL-2, 5-dose, listed as D - 835857
  TGI: 1.56E-5 Molar
[7]; Homo sapiens, SF-295, 5-dose
  GI50: 7.04 µM
[7]; Homo sapiens, SF-295, 5-dose, read-out: LC50 (the source's name)
  CC50: 86 µM
[7]; SF-295, 10 μM
  GI%: 94%
[7]; SF-295, 1.00E-5 Molar
  Growth Percent: 5.81%
[7]; SF-295, 5-dose
  TGI: 27.0 µM
[7]; SF-295, 5-dose, listed as D - 835857
  TGI: 2.70E-5 Molar
[8]; HCT-116, 10 μM
  GI%: 93%
[8]; HCT-116, 1.00E-5 Molar
  Growth Percent: 6.70%
[8]; HCT-116, 5-dose
  TGI: 36.1 µM
  CC50: < 100 µM
[8]; HCT-116, 5-dose, listed as D - 835857
  TGI: 3.61E-5 Molar
[8]; Homo sapiens, HCT-116, HCT-116, 5-dose
  CC50: > 100 µM
[8]; Homo sapiens, HCT-116, 5-dose
  GI50: 10.1 µM
[9]; [17]
  GI50: 8.29 µM
  CC50: > 100 µM
[9]; MDA-MB-468, 10 μM
  GI%: 126%
[9]; MDA-MB-468, 1.00E-5 Molar
  Growth Percent: -26.88%
[9]; MDA-MB-468, 5-dose
  GI50: 8.3 µM
  CC50: < 100 µM
[9]; MDA-MB-468, 5-dose, listed as D - 835857
  TGI: 4.23E-5 Molar
[10]; 10 μM
  GI%: 66%
[10]; 1.00E-5 Molar
  Growth Percent: 33.77%
[10]; 5-dose
  TGI: <100 µM
  CC50: < 100 µM
[10]; 5-dose, listed as D - 835857
  TGI: > 1.00E-4 Molar
[10]; Homo sapiens, 5-dose
  GI50: 13.6 µM
  CC50: > 100 µM
[11]; [18]
  GI50: 8.09 µM
  CC50: > 100 µM
[11]; SNB-19, 10 μM
  GI%: 91%
[11]; SNB-19, 1.00E-5 Molar
  Growth Percent: 8.82%
[11]; SNB-19, 5-dose
  GI50: 8.1 µM
  TGI: 81.7 µM
  CC50: < 100 µM
[11]; SNB-19, 5-dose, listed as D - 835857
  TGI: 8.17E-5 Molar
[12]; COLO 205, 10 μM
  GI%: – (Only GI% higher than 20% are shown)
[12]; COLO 205, 1.00E-5 Molar
  Growth Percent: 80.94%
[12]; COLO 205, 5-dose
  TGI: 41.0 µM
[12]; COLO 205, 5-dose, listed as D - 835857
  TGI: 4.10E-5 Molar
[12]; Homo sapiens, COLO 205, 5-dose
  GI50: 17.8 µM
  LC50 (concentration killing 50% of cells): 94.1 µM
[13]; Homo sapiens, MOLT-4, MOLT-4, 5-dose
  CC50: > 100 µM
[13]; Homo sapiens, MOLT-4, 5-dose
  GI50: 11.7 µM
[13]; MOLT-4, 10 μM
  GI%: 89%
[13]; MOLT-4, 1.00E-5 Molar
  Growth Percent: 10.91%
[13]; MOLT-4, 5-dose
  TGI: <100 µM
  CC50: < 100 µM
[13]; MOLT-4, 5-dose, listed as D - 835857
  TGI: > 1.00E-4 Molar
[14]; Homo sapiens, NCI-H460, NCI-H460, 5-dose
  GI50: 8.52 µM
[14]; Homo sapiens, NCI-H460, 5-dose
  LC50 (concentration giving 50% net cell kill): 84 µM
[14]; NCI-H460, 10 μM
  GI%: 109%
[14]; NCI-H460, 1.00E-5 Molar
  Growth Percent: -9.44%
[14]; NCI-H460, 5-dose
  GI50: 8.5 µM
  TGI: 27.7 µM
[14]; NCI-H460, 5-dose, listed as D - 835857
  TGI: 2.77E-5 Molar

Source: PMC10035947, “Development of novel anilinoquinazoline-based carboxylic acids as non-classical carbonic anhydrase IX and XII inhibitors” (Journal of Enzyme Inhibition and Medicinal Chemistry, 2023)
